Patent publication US10913780B2, “Conjugates, their compositions, their uses, and their methods of making” (THE ADMINISTRATORS OF THE TULANE EDUCATIONAL FUND, priority 2016, dated 2021)
Bridge positions count the residues as written; N and C are the ends. Square brackets hold non-standard residues; d marks the D form. * marks the point of attachment. 4‑mercaptophenylacetyl = O=C(Cc1ccc(S)cc1)*; Nle = CCCC[C@H](N)C(=O)O

Test system: activated human T-cells (Jurkat)
Assay: Inhibition of IL-2 release from a culture of activated human T-cells (Jurkat)
Type: cell-based
Conditions: for inhibition of IL-2 release: Jurkat cells stimulated with lectin and Phorbol, overnight, potency compared with tacrolimus (FK-506); for effect on IL-2 release in the presence of increasing amounts of lanreotide: large excess of the somatostatin type 2 agonist lanreotide
Protocol: Cells were harvested, washed twice, and re-suspended in serum-free medium at a cell density of 4×10^6 cells/ml. Fifty μl of cell suspension was then added to each well of 96-well plates followed by 50 μl of tested compounds at different concentration (4×) for 1 hour at 37° C. The cells were stimulated to release IL-2 by adding 50 μl of lectin in PBS (10 μg/ml) and 50 μl of Phorbol in DMSO (100 ng/ml) to each well and continuing overnight incubation. The plates were centrifuged for 10 min at 1500 rpm and supernatants harvested for IL-2 assay using kits purchased from R&D Systems (Minneapolis, Minn.) and following the experimental directions provided.

| Molecule | inhibition of IL-2 release | inhibition of IL-2 release (listed as 32-thiol analog of tacrolimus) | inhibition of IL-2 release (listed as tacrolimus-32-SH) | effect on IL-2 release in the presence of increasing amounts of lanreotide | effect on IL-2 release in the presence of increasing amounts of lanreotide (listed as tacrolimus-32-SH-somatostatin) |
| --- | --- | --- | --- | --- | --- |
| C=CC[C@@H]1/C=C(\C)C[C@H](C)C[C@H](OC)[C@H]2O[C@@](O)(C(=O)C(=O)N3CCCC[C@H]3C(=O)O[C@H](/C(C)=C/[C@@H]3CC[C@@H](O)[C@H](OC)C3)[C@H](C)[C@@H](O)CC1=O)[C@H](C)C[C@@H]2OC [Tacrolimus, reference compound] | potent inhibitor | – | – | – | – |
| C=CC[C@@H]1/C=C(\C)C[C@H](C)C[C@H](OC)[C@H]2O[C@@](O)(C(=O)C(=O)N3CCCC[C@H]3C(=O)O[C@H](/C(C)=C/[C@@H]3CCC(S)[C@H](OC)C3)[C@H](C)[C@@H](O)CC1=O)[C@H](C)C[C@@H]2OC (stereo partly drawn) [tacrolimus-32-thiol, Tacrolimus-32-Thiol] | – | virtually equipotent with the parent compound | equivalent potencies | – | – |
| Example 10: Tacrolimus-32-thiol linked by a disulfide bond (4-mercaptophenylacetic acid) to the cyclized somatostatin analog peptide of Example 9 ({tacrolimus‑32‑thiol (disulfide)-4‑mercaptophenylacetyl}-[dS]S[dS]S[dS][Nle][dY][dS]CF[dW]KTCT-NH2; disulfide 9-14) | virtually equipotent | – | – | blocked the IL-2 release inhibiting capability | Blockade of biological activity |
